Values after ≈ are worked out from the molar mass of the structure shown. Values joined by “and” are separate entries in the source; they are usually repeats but may differ in a detail not shown here. Equal values may be shown once. Read-outs that look alike come from different tables or passages of the source.
Assays:
[1] = tested on: C. globosum (soft rot decay fungi); test: Agar dilution plate method, wood rot fungi; type: cell-based; conditions: for MIC: Chaetomium globosum, read-out: MIC (ppm of amine oxides)
Procedure: (§1) The efficacy of the aqueous amine oxide solutions in Table 14 at various concentrations against the wood rot fungi T. versicolor (white rot fungi), G. trabeum (brown rot fungi), P. placenta (brown rot fungi), and C. globosum (soft rot decay fungi) were determined using the agar dilution plate method well known in the art. […] The percent retardation of the fungi was determined by the percentage change in the diameter of the fungi on the agar plate (i.e. Percent Retardation=((Diameter of Control)−(Diameter of Treated Fungi))/(Diameter of Control)*100%).

[2] = tested on: G. trabeum (brown rot fungi); test: Agar dilution plate method, wood rot fungi; type: cell-based; conditions: for MIC: Gloeophyllum trabeum, read-out: MIC (ppm of amine oxides)
Procedure: as §1

[3] = tested on: P. placenta (brown rot fungi); test: Agar dilution plate method, wood rot fungi; type: cell-based; conditions: for MIC: read-out: MIC (ppm of amine oxides)
Procedure: as §1

[4] = tested on: T. versicolor (white rot fungi); test: Agar dilution plate method, wood rot fungi; type: cell-based; conditions: for MIC: Trametes versicolor, read-out: MIC (ppm of amine oxides)
Procedure: as §1

[5] = tested on: Chaetomium globsum (C. globsum), a soft rot fungus; test: Agar plate method, fungus growth inhibition; type: cell-based
Procedure: (§2) The efficacy of aqueous solutions of amine oxides and didecyldimethyl ammonium chloride to inhibit fungus growth was evaluated by the agar plate method known in the art. […] The fungi tested were Trametes versicolor (T. versicolor), a white rot fungus; Gloeophyllum trabeum (G. trabeum), a brown rot fungus which is tolerant of arsenic and phenolic type wood preservatives; Poria placenta (P. placenta), a brown rot fungus which is tolerant to copper in wood preservatives; Lentinus lepideus (L. lepideus), a brown rot fungus which is tolerant to creosote; Coniophora puteana (C. puteana), a brown rot fungus; and Chaetomium globsum (C. globsum), a soft rot fungus.

[6] = tested on: Gloeophyllum trabeum (G. trabeum), a brown rot fungus; test: Agar plate method, fungus growth inhibition; type: cell-based
Procedure: as §2

[7] = tested on: Poria placenta (P. placenta), a brown rot fungus; test: Agar plate method, fungus growth inhibition; type: cell-based
Procedure: as §2

[8] = tested on: Trametes versicolor (T. versicolor), a white rot fungus; test: Agar plate method, fungus growth inhibition; type: cell-based; conditions: 50% retardation of growth
Procedure: as §2

stains, molds, and fungi [9] = test: Wood preserving efficacy on freshly cut white birch wood (dip treatment, sealed bag); design: key: 4 - Clean with no visible stain or mold; 3 - Trace amount of white/black fungal growth; 2 - Black and/or white fungal growth visible on all faces and ends; 1 - Heavy fungal growth
Procedure: The wood preserving efficacy of each aqueous test solution in Table 1 below was tested on freshly cut white birch wood as follows. All percentages in Table 1 are by weight. A branch of white birch tree measuring about 3 inches in diameter was cut into pieces about 6 inch in length. Each piece was then split into 4 sections. Each section was dipped into the test solution for about 1 minute and blotted with a paper towel to remove excess liquid. The sections were sealed in a clear plastic bag and stored at ambient conditions. The sections were observed after 1, 3, 7, and 12 weeks for the growth of stains, molds, and fungi. The aqueous test solutions were prepared by mixing the active ingredient with water.

stains, molds, and fungi [10] = test: Wood preserving efficacy on freshly cut green chestnut oak (dip treatment); design: scale not given here
stains, molds, and fungi [11] = test: Wood preserving efficacy on freshly cut tulip wood (dip treatment); further: key: 4 - Clean with no visible stain or mold; 3 - Trace amount of white/black fungal growth; 2 - Black and/or white fungal growth visible on all faces and ends; 1 - Heavy fungal growth
Procedure: The wood preserving efficacy of each aqueous test solution in Table 17 below was tested on freshly cut tulip wood (also known as Tulip-Popular, Yellow Popular, and Liriodendron tulipfera L.) as follows. All percentages in Table 17 are by weight. Pieces of tulip wood cut from a 4″ debarked branch were cut into pieces. Each piece was then split into 4 sections. Each section was dipped into the test solution for about 1 minute and blotted with a paper towel to remove excess liquid. The sections were sealed in a clear plastic bag and stored at ambient conditions. The sections were observed after 1, 3, 7, and 11 weeks for the growth of stains, molds, and fungi. The aqueous test solutions were prepared by mixing the active ingredient with water.

stains, molds, and fungi [12] = test: Wood preserving efficacy on freshly cut beech wood (dip treatment); conditions: beech wood pieces (Example 15); further: key: 4 - Clean with no visible stain or mold; 3 - Trace amount of white/black fungal growth; 2 - Black and/or white fungal growth visible on all faces and ends; 1 - Heavy fungal growth
Procedure: The wood preserving efficacy of each aqueous test solution in Table 18 below was tested on freshly cut beech wood (Fagus grandifolia Ehrh.) as follows. All percentages in Table 18 are by weight. A 1″ branch of a beech tree was split into two pieces. The bark was left on the pieces. Each piece was dipped into the test solution for about 1 minute and blotted with a paper towel to remove excess liquid. […] The aqueous test solutions were prepared by mixing the active ingredient with water.

[13] = C. globosum, 100% growth retardation, Table 14
[14] = G. trabeum, 100% growth retardation, Table 14
[15] = P. placenta, 100% growth retardation, Table 14
[16] = T. versicolor, 100% growth retardation, Table 14
[17] = 3 weeks, listed as 0.5% Dodecyl DMAO
[18] = 3 weeks, listed as 1.0% Dodecyl DMAO
[19] = 7 weeks, listed as 0.5% Dodecyl DMAO
[20] = 7 weeks, listed as 1.0% Dodecyl DMAO
[21] = 11 weeks, listed as 0.5% Dodecyl DMAO
[22] = 11 weeks, listed as 1.0% Dodecyl DMAO

## CCCCCCCCCCCC[N+](C)([O-])Cc1ccccc1 (centres unmarked) [Dodecyl-BMAO]
[1]; [13]
  MIC (ppm of amine oxides): >1000 ppm
[2]; [14]
  MIC (ppm of amine oxides): 1000 ppm
[3]; [15]
  MIC (ppm of amine oxides): >1000 ppm
[4]; [16]
  MIC (ppm of amine oxides): >1000 ppm

## Tallow di(hydroxyethyl)amine oxide
[1]; [13]
  MIC (ppm of amine oxides): >1000 ppm
[2]; [14]
  MIC (ppm of amine oxides): >1000 ppm
[3]; [15]
  MIC (ppm of amine oxides): >1000 ppm
[4]; [16]
  MIC (ppm of amine oxides): >1000 ppm

## Coco-di(hydroxyethyl)amine oxide
[1]; [13]
  MIC (ppm of amine oxides): >1000 ppm
[2]; [14]
  MIC (ppm of amine oxides): 500 ppm
[3]; [15]
  MIC (ppm of amine oxides): 500 ppm
[4]; [16]
  MIC (ppm of amine oxides): 500 ppm

## CCCCCCCC[N+](C)(C)[O-] [Octyldimethylamine oxide]
[5]
  IC50: 400 ppm
[6]
  IC50: 250-400 ppm
[7]
  IC50: 300 ppm
[8]
  IC50: 800 ppm
[1]; [13]
  MIC: > 1000 µg/mL
[2]; [14]
  MIC: 1000 µg/mL (≈ 5.77 mM)
[3]; [15]
  MIC: 1000 µg/mL (≈ 5.77 mM)
[4]; [16]
  MIC: 750 µg/mL (≈ 4.33 mM)

## CCCCCCCCCCCCCC[N+](C)(C)[O-] [Tetradecyl dimethylamine oxide]
stains, molds, and fungi [9]; 1 week
  Rating of treated white birch sections vs. Time: 4
stains, molds, and fungi [9]; 3 weeks
  Rating of treated white birch sections vs. Time: 3
stains, molds, and fungi [9]; 7 weeks
  Rating of treated white birch sections vs. Time: 2
stains, molds, and fungi [9]; 12 weeks
  Rating of treated white birch sections vs. Time: 2
[5]
  IC50: 80-100 ppm
[6]
  IC50: 15-25 ppm
[7]
  IC50: 2-5 ppm
[8]
  IC50: 70 ppm
[1]; [13]
  MIC: > 1000 µg/mL
[2]; [14]
  MIC: > 1000 µg/mL
[3]; [15]
  MIC: > 1000 µg/mL
[4]; [16]
  MIC: > 1000 µg/mL

## CCCCCCCCCC[N+](C)(C)[O-] [Decyldimethylamine oxide]
stains, molds, and fungi [9]; 1 week
  Rating of treated white birch sections vs. Time: 3
stains, molds, and fungi [9]; 3 weeks
  Rating of treated white birch sections vs. Time: 2
stains, molds, and fungi [9]; 7 weeks
  Rating of treated white birch sections vs. Time: 2
stains, molds, and fungi [9]; 12 weeks
  Rating of treated white birch sections vs. Time: 2
[5]
  IC50: 50-100 ppm
[6]
  IC50: 20-40 ppm
[7]
  IC50: 15-25 ppm
[8]
  IC50: 300-500 ppm
[1]; [13]
  MIC: > 1000 µg/mL
[2]; [14]
  MIC: 250 µg/mL (≈ 1.24 mM)
[3]; [15]
  MIC: 500 µg/mL (≈ 2.48 mM)
[4]; [16]
  MIC: 750 µg/mL (≈ 3.72 mM)

## CCCCCCCCCCCC[N+]1([O-])CCOCC1 [Lauryl morpholine N-oxide, lauryl morpholine N-oxide]
[1]; [13]
  MIC (ppm of amine oxides): >1000 ppm
[2]; [14]
  MIC (ppm of amine oxides): 1000 ppm
[3]; [15]
  MIC (ppm of amine oxides): 500 ppm
[4]; [16]
  MIC (ppm of amine oxides): 750 ppm

## CC(O)(P(=O)(O)O)P(=O)(O)O [1-Hydroxyethylidene-1,1-diphosphonic acid]
stains, molds, and fungi [10]; 2 weeks
  Rating of treated green chestnut oak sections vs. Time: 2
stains, molds, and fungi [10]; 4 weeks
  Rating of treated green chestnut oak sections vs. Time: 2
stains, molds, and fungi [10]; 5 weeks
  Rating of treated green chestnut oak sections vs. Time: 1
stains, molds, and fungi [10]; 9 weeks
  Rating of treated green chestnut oak sections vs. Time: 1

## CCCCCCCCCCCCCCCCCC[N+](C)(C)[O-] [Octadecyl dimethylamine oxide]
[5]
  IC50: 600 ppm
[6]
  IC50: 250 ppm
[7]
  IC50: 20-50 ppm
[8]
  IC50: 800 ppm
[1]; [13]
  MIC: > 1000 µg/mL
[2]; [14]
  MIC: > 1000 µg/mL
[3]; [15]
  MIC: > 1000 µg/mL
[4]; [16]
  MIC: > 1000 µg/mL

## CCCCCCCCCCCC[N+](C)(C)[O-] [Dodecyl dimethylamine oxide, dodecyl dimethylamine oxide]
stains, molds, and fungi [10]; 2 weeks
  Rating of treated green chestnut oak sections vs. Time: 3
stains, molds, and fungi [10]; 4 weeks
  Rating of treated green chestnut oak sections vs. Time: 2
stains, molds, and fungi [10]; 5 weeks
  Rating of treated green chestnut oak sections vs. Time: 2
stains, molds, and fungi [10]; 9 weeks
  Rating of treated green chestnut oak sections vs. Time: 1
[1]
  MIC: > 1000 µg/mL
[2]
  MIC: 250 µg/mL (≈ 1.09 mM)
[3]
  MIC: 250 µg/mL (≈ 1.09 mM)
[4]
  MIC: 250 µg/mL (≈ 1.09 mM)
stains, molds, and fungi [11]; 1 week
  Rating of treated tulip sections vs. Time: 4
stains, molds, and fungi [11]; [17]
  Rating of treated tulip sections vs. Time: 3
stains, molds, and fungi [11]; [18]
  Rating of treated tulip sections vs. Time: 4
stains, molds, and fungi [11]; [19]
  Rating of treated tulip sections vs. Time: 2
stains, molds, and fungi [11]; [20]
  Rating of treated tulip sections vs. Time: 4 and 3
stains, molds, and fungi [11]; [21]
  Rating of treated tulip sections vs. Time: 1
stains, molds, and fungi [11]; [22]
  Rating of treated tulip sections vs. Time: 4
stains, molds, and fungi [12]; 1 week, listed as 0.5% Dodecyl DMAO
  Rating of treated tulip sections vs. Time: 4
stains, molds, and fungi [12]; 1 week, listed as 1.0% Dodecyl DMAO
  Rating of treated tulip sections vs. Time: 4 and 3.5
stains, molds, and fungi [12]; [17]
  Rating of treated tulip sections vs. Time: 4
stains, molds, and fungi [12]; [18]
  Rating of treated tulip sections vs. Time: 2 and 3
stains, molds, and fungi [12]; [19]
  Rating of treated tulip sections vs. Time: 2.5
stains, molds, and fungi [12]; [20]
  Rating of treated tulip sections vs. Time: 2
stains, molds, and fungi [12]; [21]
  Rating of treated tulip sections vs. Time: 2.5
stains, molds, and fungi [12]; [22]
  Rating of treated tulip sections vs. Time: 2 and 1
